Our source for the IC50 values is patent US6300331A, “Naphthalimidobenzamide derivatives” (Taiho Pharmaceutical Co., Ltd., priority 1998, dated 2001).

Structures are written as SMILES. Counter-ions that a name gives are not always drawn.

In this test the test system is KB cells. The test can be described thus: Cytotoxicity against KB cells (crystal violet dying method). Type of test: cell-based. To be noted: Homo sapiens; KB cells, 72 hours, 50% proliferation inhibition; read-out: Cytotoxicity [IC50 (μM)]. Here is the method:
Test 1 Cytotoxicity against KB cells
The residue was re-suspended in an MEM medium containing 10% fetal bovine serum. Then, an equivalent amount of a 0.2% trypan blue solution was added to a portion of the cell suspension, followed by mixing. The number of living cells which had not been dyed with the trypan blue was counted by a hemocytometer and the suspension was diluted and adjusted with the above-described culture medium to give a cell concentration of 1×10^4 cells/ml. Each well of a 96-well plate was inoculated with a 100-μl portion of the resulting suspension, in other words, was inoculated to give a concentration of 1×10^3 cells/well.
To the cells cultured in a CO2 incubator for 24 hours after the inoculation was added 100 μl/well of a medicament solution, followed by culturing for 72 hours. To a control was added 100 μl of an MEM medium.
The cytotoxicity of the medicament was determined from a change in the number of the cells by using the crystal violet dying method.
After washing the plate with water, 100 μl/well of a 0.05% crystal violet solution dissolved in 20% methanol was added to dye the cells therewith for about 15 minutes. The plate was washed to remove the unbound crystal violet, followed by the addition of 100 μl/well of 0.05M NaH2 PO4 /ethanol (1:1 v/v), whereby the crystal violet bound to the cellular protein was extracted.
For the molecule `O=C(NCCNCCN1C(=O)c2cccc3cccc(c23)C1=O)c1cc(C(=O)NCCNCCN2C(=O)c3cccc4cccc(c34)C2=O)cc(N2C(=O)c3cccc4cccc(c34)C2=O)c1` [Example 1, 1,3-bis[N-[2-[[2-(1,8-naphthalimido)ethyl]amino]ethyl]carbamoyl]-5-(1,8-naphthalimido) benzene dimethanesulfonate], the IC50 came out at 0.059 µM. With `O=C(NCCNCCN1C(=O)c2cccc3cc([N+](=O)[O-])cc(c23)C1=O)c1cc(C(=O)NCCNCCN2C(=O)c3cccc4cc([N+](=O)[O-])cc(c34)C2=O)cc(N2C(=O)c3cccc4cccc(c34)C2=O)c1` [Example 2, 1,3-bis[N-[2-[[2-(3-nitro-1,8-naphthalimido)ethyl]amino]ethyl]carbamoyl]-5(1,8-naphthalimido)benzene dimethanesulfonate] the figure was 0.0061 µM; with `O=C(NCCNCCn1c2ccccc2c2ccncc21)c1cc(C(=O)NCCNCCn2c3ccccc3c3ccncc32)cc(N2C(=O)c3cccc4cc([N+](=O)[O-])cc(c34)C2=O)c1` [Example 3, 1,3-bis[N-[2-[[2-(pyrido[3,4-b]indol-9-yl)ethyl]amino]ethyl]carbamoyl]-1-(3-nitro-1,8-naphthalimido)benzene tetratrifluoroacetate], 2.6 µM. With `O=C(NCCNCCN1C(=O)c2cccc3cccc(c23)C1=O)c1cc(C(=O)NCCNCCN2C(=O)c3cccc4cccc(c34)C2=O)cc(N2C(=O)c3cccc4cc([N+](=O)[O-])cc(c34)C2=O)c1` [Example 6, 1,3-bis[N-[2-[[2-(1,8-naphthalimido)ethyl]amino]ethyl]carbamoyl]-5-(3-nitro-1,8-naphthalimido)benzene and dihydrochloride thereof] the figure was 0.064 µM; with `O=C(NCCNCCN1C(=O)c2cc3ccccc3cc2C1=O)c1cc(C(=O)NCCNCCN2C(=O)c3cc4ccccc4cc3C2=O)cc(N2C(=O)c3cccc4cc([N+](=O)[O-])cc(c34)C2=O)c1` [Example 7, 1,3-bis[N-[2-[[2-(2,3-naphthalimido)ethyl]amino]ethyl]carbamoyl]-5-(3-nitro-1,8-naphthalimido)benzene dihydrochloride], 4.1 µM. The result for `O=C(NCCNCCN1C(=O)c2cccc3c(Cl)ccc(c23)C1=O)c1cc(C(=O)NCCNCCN2C(=O)c3cccc4c(Cl)ccc(c34)C2=O)cc(N2C(=O)c3cccc4cc([N+](=O)[O-])cc(c34)C2=O)c1` [Example 8, 1,3-bis[N-[2-[[2-(4-chloro-1,8-naphthalimido)ethyl]amino]ethyl]carbamoyl]-5-(3-nitro-1,8-naphthalimido)benzene dihydrochloride] reads 0.05 µM; that for `O=C(NCCNCCN1C(=O)c2cccc3c(Cl)ccc(c23)C1=O)c1cc(C(=O)NCCNCCN2C(=O)c3cccc4c(Cl)ccc(c34)C2=O)cc(N2C(=O)c3cccc4cccc(c34)C2=O)c1` [Example 9, 1,3-bis[N-[2-[[2-(4-chloro-1,8-naphthalimido)ethyl]amino]ethyl]carbamoyl]-5-(1,8-naphthalimido)benzene dihydrochloride], 0.023 µM; that for `O=C(NCCCNCCCN1C(=O)c2cccc3cc([N+](=O)[O-])cc(c23)C1=O)c1cc(C(=O)NCCCNCCCN2C(=O)c3cccc4cc([N+](=O)[O-])cc(c34)C2=O)cc(N2C(=O)c3cccc4cc([N+](=O)[O-])cc(c34)C2=O)c1` [Example 11, 1,3-bis[N-[3-[[3-(3-nitro-1,8-naphthalimido)propyl]amino]propyl]carbamoyl]-5-(3-nitro-1,8-naphthalimido)benzene dihydrochloride], 0.14 µM. In the case of `O=C(NCCNCCNC(=O)c1cnc2ccccc2c1)c1cc(C(=O)NCCNCCN2C(=O)c3cccc4cc([N+](=O)[O-])cc(c34)C2=O)cc(N2C(=O)c3cccc4cc([N+](=O)[O-])cc(c34)C2=O)c1` [Example 13, 1-(3-nitro-1,8-naphthalimido)-3-[N-[2-[[2-(3-nitro-1,8-naphthalimido)ethyl]amino]ethyl]carbamoyl]-5-[N-[2-[[2-(quinoline-3-carbonylamino)ethyl]amino]ethyl]carbamoyl]benzene trihydrochloride], the IC50 amounted to 1.6 µM. With `O=C(NCCNCCNC(=O)c1ccnc2ccccc12)c1cc(C(=O)NCCNCCN2C(=O)c3cccc4cc([N+](=O)[O-])cc(c34)C2=O)cc(N2C(=O)c3cccc4cc([N+](=O)[O-])cc(c34)C2=O)c1` [Example 14, 1-(3-nitro-1,8-naphthalimido)-3-[N-[2-[[2-(3-nitro-1,8-naphthalimido)ethyl]amino]ethyl]carbamoyl]-5-[N-[2-[[2-(quinoline-4-carbonylamino)ethyl]amino]ethyl]carbamoyl]benzene trihydrochloride] the figure was 1.3 µM; with `O=C(NCCNCCNC(=O)c1cnc2ccccc2n1)c1cc(C(=O)NCCNCCN2C(=O)c3cccc4cc([N+](=O)[O-])cc(c34)C2=O)cc(N2C(=O)c3cccc4cc([N+](=O)[O-])cc(c34)C2=O)c1` [Example 15, 1-(3-nitro-1,8-naphthalimido)-3-[N-[2-[[2-(3-nitro-1,8-naphthalimido)ethyl]amino]ethyl]carbamoyl]-5-[N-[2-[[2-(quinoxaline-2-carbonylamino)ethyl]amino]ethyl]carbamoyl]benzene trihydrochloride], 0.21 µM; with `Cn1c(C(=O)NCCNCCNC(=O)c2cc(C(=O)NCCNCCN3C(=O)c4cccc5cc([N+](=O)[O-])cc(c45)C3=O)cc(N3C(=O)c4cccc5cc([N+](=O)[O-])cc(c45)C3=O)c2)cc2ccccc21` [Example 16, 1-(3-nitro-1,8-naphthalimido)-3-[N-[2-[[2-(3-nitro-1,8-naphthalimido)ethyl]amino]ethyl]carbamoyl]-5-[N-[2-[[2-(1-methylindole-2-carbonylamino)ethyl]amino]ethyl]carbamoyl]benzene dihydrochloride], 6.6 µM. With `O=C(NCCNCCN1C(=O)c2cc3ccccc3cc2C1=O)c1cc(C(=O)NCCNCCN2C(=O)c3cccc4cc([N+](=O)[O-])cc(c34)C2=O)cc(N2C(=O)c3cccc4cc([N+](=O)[O-])cc(c34)C2=O)c1` [Example 17, 1-[N-[2-[[2-(2,3-naphthalimido)ethyl]amino]ethyl]carbamoyl]-3-(3-nitro-1,8-naphthalimido)-5-[N-[2-[[2-(3-nitro-1,8-naphthalimido)ethyl]amino]ethyl]carbamoyl]benzene dihydrochloride] the figure was 0.28 µM; with `CN(C)CCCNC(=O)c1cc(NC(=O)CCNC(=O)c2cc(C(=O)NCCNCCN3C(=O)c4cccc5cc([N+](=O)[O-])cc(c45)C3=O)cc(N3C(=O)c4cccc5cc([N+](=O)[O-])cc(c45)C3=O)c2)cn1C` [Example 33, 1-[N-[2-[N-[2-[N-(3-dimethylaminopropyl)carbamoyl]-1-methylpyrrol-4-yl]carbamoyl]ethyl]carbamoyl]-3-(3-nitro-1,8-naphthalimido)-5-[N-[2-[[2-(3-nitro-1,8-naphthalimido)ethyl]amino]ethyl]carbamoyl]benzene dihydrochloride], 7.1 µM. Turning to `CN(C)CCCNC(=O)c1cc(NC(=O)CCCNC(=O)c2cc(C(=O)NCCNCCN3C(=O)c4cccc5cc([N+](=O)[O-])cc(c45)C3=O)cc(N3C(=O)c4cccc5cc([N+](=O)[O-])cc(c45)C3=O)c2)cn1C` [Example 34, 1-[N-[3-[N-[2-[N-(3-dimethylaminopropyl)carbamoyl]-1-methylpyrrol-4-yl]carbamoyl]propyl]carbamoyl]-3-(3-nitro-1,8-naphthalimido)-5-[N-[2-[[2-(3-nitro-1,8-naphthalimido)ethyl]amino]ethyl]carbamoyl]benzene dihydrochloride], the IC50 was found to be 4.7 µM.

Turning to `Cn1cc(NC(=O)c2cc(NC=O)cn2C)cc1C(=O)NCCNCCNC(=O)c1cc(C(=O)NCCNCCN2C(=O)c3cccc4cc([N+](=O)[O-])cc(c34)C2=O)cc(N2C(=O)c3cccc4cc([N+](=O)[O-])cc(c34)C2=O)c1` [Example 38, 1-[N-[2-[[2-[4-(4-formamido-1-methylpyrrole-2-carboxyamido)-1-methylpyrrole-2-carboxamido]ethyl]amino]ethyl]carbamoyl]-3-(3-nitro-1,8-naphthalimido)-5-[N-[2-[[2-(3-nitro-1,8-naphthalimido)ethyl]amino]ethyl]carbamoyl]benzene dihydrochloride], the concentration for half-maximal inhibition (IC50) was 6.9 µM.

Regarding `O=C(NCCNCCN1C(=O)c2cccc3cc([N+](=O)[O-])cc(c23)C1=O)c1cccc(N2C(=O)c3cccc4cc([N+](=O)[O-])cc(c34)C2=O)c1` [Example 39, 1-(3-nitro-1,8-naphthalimido)-3-[N-[2-[[2-(3-nitro-1,8-naphthalimido)ethyl]amino]ethyl]carbamoyl]benzene hydrochloride], the half-maximal inhibitory concentration (IC50) worked out at 0.0053 µM.

`O=C(NCCNCCCN1C(=O)c2cccc3cc([N+](=O)[O-])cc(c23)C1=O)c1cccc(N2C(=O)c3cccc4cc([N+](=O)[O-])cc(c34)C2=O)c1` [Example 40 (A), 1-(3-nitro-1,8-naphthalimido)-3-[N-[2-[[3-(3-nitro-1,8-naphthalimido)propyl]amino]ethyl]carbamoyl]benzene hydrochloride]: the IC50 amounted to 0.003 µM. With `O=C(NCCCNCCN1C(=O)c2cccc3cc([N+](=O)[O-])cc(c23)C1=O)c1cccc(N2C(=O)c3cccc4cc([N+](=O)[O-])cc(c34)C2=O)c1` [Example 40 (B), 1-(3-nitro-1,8-naphthalimido)-3-[N-[3-[[2-(3-nitro-1,8-naphthalimido)ethyl]amino]propyl]carbamoyl]benzene hydrochloride] the figure was 0.00023 µM.
